This note sets out measurements from patent publication US20200016159A1, “N3-CYCLICALLY SUBSTITUTED THIENOURACILS AND USE THEREOF” (Bayer Aktiengesellschaft, priority 2016, published 2020).

Molecules are shown by their SMILES.

The target of this experiment is T1, human adenosine A2b receptor (Homo sapiens, UniProt P29275).
T1 sequence (P29275 1-332): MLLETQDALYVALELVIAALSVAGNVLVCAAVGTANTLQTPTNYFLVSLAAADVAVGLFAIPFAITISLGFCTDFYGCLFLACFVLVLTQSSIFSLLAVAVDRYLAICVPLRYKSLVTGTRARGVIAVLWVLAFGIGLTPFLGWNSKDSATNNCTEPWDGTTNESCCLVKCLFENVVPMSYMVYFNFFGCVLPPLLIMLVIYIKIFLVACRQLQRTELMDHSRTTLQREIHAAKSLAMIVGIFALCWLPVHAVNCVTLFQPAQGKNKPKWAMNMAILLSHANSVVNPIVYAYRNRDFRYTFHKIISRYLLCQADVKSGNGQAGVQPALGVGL
Put plainly: Cellular in vitro reporter gene test for A2b receptor activity (antagonism of NECA). It is filed as cell-based. Also on record: expressed in transfected cells; host or cells: CHO-K1 (Chinese hamster ovary) with CRE-luciferase reporter. As to conditions: recombinant CHO-K1 cells, CRE-luciferase reporter, co-incubation with EC50 concentration of NECA, 3 hours. In short, it runs like this:
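Antagonism measured as block of NECA-induced, cAMP/CRE-dependent luciferase expression in recombinant A2b CHO-K1 cells. NECA used at the EC50 set in a pre-experiment on each test day; luminescence detected after 3 h. Reported as IC50, partly averaged and rounded to two significant figures.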

On to `COCCn1c(=O)n(C2(C(F)(F)F)CC2)c(=O)c2c(C)c(CN3CCNC3=NC(=O)OC)sc21` [Example 87, Methyl [1-({1-(2-methoxyethyl)-5-methyl-2,4-dioxo-3-[1-(trifluoromethyl)cyclopropyl]-1,2,3,4-tetrahydrothieno[2,3-d]pyrimidin-6-yl}methyl)imidazolidin-2-ylidene]carbamate], for which the IC50 was determined as 140 nM.
The result for `COCCn1c(=O)n(C2(C(F)(F)F)CC2)c(=O)c2c(C)c(CN3CCNC(=O)C3=O)sc21` [Example 88, 6-[(2,3-Dioxopiperazin-1-yl)methyl]-1-(2-methoxyethyl)-5-methyl-3-[1-(trifluoromethyl)cyclopropyl]thieno[2,3-d]pyrimidine-2,4(1H,3H)-dione] reads 690 nM; that for `COCCn1c(=O)n(C2(C(F)(F)F)CC2)c(=O)c2c(C)c(Cn3nc[nH]c3=O)sc21` [Example 89, 1-(2-Methoxyethyl)-5-methyl-6-[(5-oxo-4,5-dihydro-1H-1,2,4-triazol-1-yl)methyl]-3-[1-(trifluoromethyl)cyclopropyl]thieno[2,3-d]pyrimidine-2,4(1H,3H)-dione], 1200 nM; that for `CCC1(n2c(=O)c3c(C)c(CN4CCNC4=O)sc3n(CCC(F)(F)F)c2=O)CC1` [Example 106, 3-(1-Ethylcyclopropyl)-5-methyl-6-[(2-oxoimidazolidin-1-yl)methyl]-1-(3,3,3-trifluoropropyl)thieno[2,3-d]pyrimidine-2,4(1H,3H)-dione], 41 nM.
For the molecule `CCC1(n2c(=O)c3c(C)c(Cn4nc[nH]c4=O)sc3n(CCC(F)(F)F)c2=O)CC1` [Example 107, 3-(1-Ethylcyclopropyl)-5-methyl-6-[(5-oxo-4,5-dihydro-1H-1,2,4-triazol-1-yl)methyl]-1-(3,3,3-trifluoropropyl)thieno[2,3-d]pyrimidine-2,4(1H,3H)-dione], the 50% inhibitory concentration (IC50) stood at 290 nM.
In the case of `CCC1(n2c(=O)c3c(C)c(CN4CCNC4=O)sc3n(CCOC)c2=O)CC1` [Example 108, 3-(1-Ethylcyclopropyl)-1-(2-methoxyethyl)-5-methyl-6-[(2-oxoimidazolidin-1-yl)methyl]thieno[2,3-d]pyrimidine-2,4(1H,3H)-dione] it was 110 nM; in that of `CCC1(n2c(=O)c3c(C)c(Cn4nc[nH]c4=O)sc3n(CCOC)c2=O)CC1` [Example 109, 3-(1-Ethylcyclopropyl)-1-(2-methoxyethyl)-5-methyl-6-[(5-oxo-4,5-dihydro-H-1,2,4-triazol-1-yl)methyl]thieno[2,3-d]pyrimidine-2,4(1H,3H)-dione], 640 nM.
The result for `Cc1c(CN2CCNC2=O)sc2c1c(=O)n(C1CCC1)c(=O)n2CCC(F)(F)F` [Example 110, 3-Cyclobutyl-5-methyl-6-[(2-oxoimidazolidin-1-yl)methyl]-1-(3,3,3-trifluoropropyl)thieno[2,3-d]pyrimidine-2,4(1H,3H)-dione] reads 0.59 nM; that for `Cc1c(CN2CCNC2=NC#N)sc2c1c(=O)n(C1CCC1)c(=O)n2CCC(F)(F)F` [Example 111, [1-{[3-Cyclobutyl-5-methyl-2,4-dioxo-1-(3,3,3-trifluoropropyl)-1,2,3,4-tetrahydrothieno[2,3-d]pyrimidin-6-yl]methyl}imidazolidin-2-ylidene]cyanamide], 1.7 nM.
Consider `COC(=O)N=C1NCCN1Cc1sc2c(c1C)c(=O)n(C1CCC1)c(=O)n2CCC(F)(F)F` [Example 112, Methyl [1-{[3-cyclobutyl-5-methyl-2,4-dioxo-1-(3,3,3-trifluoropropyl)-1,2,3,4-tetrahydrothieno[2,3-d]pyrimidin-6-yl]methyl}imidazolidin-2-ylidene]carbamate], for which the IC50 was found to be 1.2 nM.
The result for `Cc1c(CN2CCNC(=O)C2=O)sc2c1c(=O)n(C1CCC1)c(=O)n2CCC(F)(F)F` [Example 113, 3-Cyclobutyl-6-[(2,3-dioxopiperazin-1-yl)methyl]-5-methyl-1-(3,3,3-trifluoropropyl)thieno[2,3-d]pyrimidine-2,4(1H,3H)-dione] reads 2 nM; that for `Cc1c(Cn2nc[nH]c2=O)sc2c1c(=O)n(C1CCC1)c(=O)n2CCC(F)(F)F` [Example 114, 3-Cyclobutyl-5-methyl-6-[(5-oxo-4,5-dihydro-1H-1,2,4-triazol-1-yl)methyl]-1-(3,3,3-trifluoropropyl)thieno[2,3-d]pyrimidine-2,4(1H,3H)-dione], 1.9 nM.
The result for `COCCn1c(=O)n(C2CCC2)c(=O)c2c(C)c(CN3CCNC3=O)sc21` [Example 115, 3-Cyclobutyl-1-(2-methoxyethyl)-5-methyl-6-[(2-oxoimidazolidin-1-yl)methyl]thieno[2,3-d]pyrimidine-2,4(1H,3H)-dione] reads 4.3 nM.
The result for `COCCn1c(=O)n(C2CCC2)c(=O)c2c(C)c(CN3CCNC3=NC#N)sc21` [Example 116, [1-{[3-Cyclobutyl-1-(2-methoxyethyl)-5-methyl-2,4-dioxo-1,2,3,4-tetrahydrothieno[2,3-d]pyrimidin-6-yl]methyl}imidazolidin-2-ylidene]cyanamide] reads 4 nM; that for `COCCn1c(=O)n(C2CCC2)c(=O)c2c(C)c(CN3CCNC3=NC(=O)OC)sc21` [Example 117, Methyl [1-{[3-cyclobutyl-1-(2-methoxyethyl)-5-methyl-2,4-dioxo-1,2,3,4-tetrahydrothieno[2,3-d]pyrimidin-6-yl]methyl}imidazolidin-2-ylidene]carbamate], 1.3 nM.
Regarding `COCCn1c(=O)n(C2CCC2)c(=O)c2c(C)c(CN3CCNC(=O)C3=O)sc21` [Example 118, 3-Cyclobutyl-6-[(2,3-dioxopiperazin-1-yl)methyl]-1-(2-methoxyethyl)-5-methylthieno[2,3-d]pyrimidine-2,4(1H,3H)-dione], the half-inhibitory concentration (IC50) is 14 nM.
As for `COCCn1c(=O)n(C2CCC2)c(=O)c2c(C)c(Cn3nc[nH]c3=O)sc21` [Example 119, 3-Cyclobutyl-1-(2-methoxyethyl)-5-methyl-6-[(5-oxo-4,5-dihydro-H-1,2,4-triazol-1-yl)methyl]thieno[2,3-d]pyrimidine-2,4(1H,3H)-dione], the IC50 came to 12 nM.
On to `Cc1c(CN2CCNC2=O)sc2c1c(=O)n(C1CC(F)(F)C1)c(=O)n2CCC(F)(F)F` [Example 120, 3-(3,3-Difluorocyclobutyl)-5-methyl-6-[(2-oxoimidazolidin-1-yl)methyl]-1-(3,3,3-trifluoropropyl)thieno[2,3-d]pyrimidine-2,4(1H,3H)-dione], for which the half-inhibitory concentration (IC50) is 3.2 nM.
In the case of `Cc1c(CN2CCNC2=NC#N)sc2c1c(=O)n(C1CC(F)(F)C1)c(=O)n2CCC(F)(F)F` [Example 121, [1-{[3-(3,3-Difluorocyclobutyl)-5-methyl-2,4-dioxo-1-(3,3,3-trifluoropropyl)-1,2,3,4-tetrahydrothieno[2,3-d]pyrimidin-6-yl]methyl}imidazolidin-2-ylidene]cyanamide] it was 15 nM; in that of `COC(=O)N=C1NCCN1Cc1sc2c(c1C)c(=O)n(C1CC(F)(F)C1)c(=O)n2CCC(F)(F)F` [Example 122, Methyl [1-{[3-(3,3-difluorocyclobutyl)-5-methyl-2,4-dioxo-1-(3,3,3-trifluoropropyl)-1,2,3,4-tetrahydrothieno[2,3-d]pyrimidin-6-yl]methyl}imidazolidin-2-ylidene]carbamate], 4.2 nM.
The result for `Cc1c(CN2CCNC(=O)C2=O)sc2c1c(=O)n(C1CC(F)(F)C1)c(=O)n2CCC(F)(F)F` [Example 123, 3-(3,3-Difluorocyclobutyl)-6-[(2,3-dioxopiperazin-1-yl)methyl]-5-methyl-1-(3,3,3-trifluoropropyl)thieno[2,3-d]pyrimidine-2,4(1H,3H)-dione] reads 10 nM; that for `Cc1c(Cn2nc[nH]c2=O)sc2c1c(=O)n(C1CC(F)(F)C1)c(=O)n2CCC(F)(F)F` [Example 124, 3-(3,3-Difluorocyclobutyl)-5-methyl-6-[(5-oxo-4,5-dihydro-H-1,2,4-triazol-1-yl)methyl]-1-(3,3,3-trifluoropropyl)thieno[2,3-d]pyrimidine-2,4(1H,3H)-dione], 26 nM.
`COCCn1c(=O)n(C2CC(F)(F)C2)c(=O)c2c(C)c(CN3CCNC3=O)sc21` [Example 125, 3-(3,3-Difluorocyclobutyl)-1-(2-methoxyethyl)-5-methyl-6-[(2-oxoimidazolidin-1-yl)methyl]thieno[2,3-d]pyrimidine-2,4(1H,3H)-dione]: the concentration for half-maximal inhibition (IC50) was 33 nM.
In the case of `COCCn1c(=O)n(C2CC(F)(F)C2)c(=O)c2c(C)c(CN3CCNC3=NC#N)sc21` [Example 126, [1-{[3-(3,3-Difluorocyclobutyl)-1-(2-methoxyethyl)-5-methyl-2,4-dioxo-1,2,3,4-tetrahydrothieno[2,3-d]pyrimidin-6-yl]methyl}imidazolidin-2-ylidene]cyanamide], the half-inhibitory concentration (IC50) came out at 14 nM.
In the case of `COCCn1c(=O)n(C2CC(F)(F)C2)c(=O)c2c(C)c(CN3CCNC3=NC(=O)OC)sc21` [Example 127, Methyl [1-{[3-(3,3-difluorocyclobuty)-1-(2-methoxyethyl)-5-methyl-2,4-dioxo-1,2,3,4-tetrahydrothieno[2,3-d]pyrimidin-6-yl]methyl}imidazolidin-2-ylidene]carbamate] it was 10 nM; in that of `COCCn1c(=O)n(C2CC(F)(F)C2)c(=O)c2c(C)c(CN3CCNC(=O)C3=O)sc21` [Example 128, 3-(3,3-Difluorocyclobutyl)-6-[(2,3-dioxopiperazin-1-yl)methyl]-1-(2-methoxyethyl)-5-methylthieno[2,3-d]pyrimidine-2,4(1H,3H)-dione], 36 nM.
